What all share (format): biochemical
One experiment deals with T1, TYK2 (Homo sapiens, UniProt P29597).
T1 construct: made in house; host or cells: SF9 insect cells (baculovirus)
T1 sequence (P29597 873-1187): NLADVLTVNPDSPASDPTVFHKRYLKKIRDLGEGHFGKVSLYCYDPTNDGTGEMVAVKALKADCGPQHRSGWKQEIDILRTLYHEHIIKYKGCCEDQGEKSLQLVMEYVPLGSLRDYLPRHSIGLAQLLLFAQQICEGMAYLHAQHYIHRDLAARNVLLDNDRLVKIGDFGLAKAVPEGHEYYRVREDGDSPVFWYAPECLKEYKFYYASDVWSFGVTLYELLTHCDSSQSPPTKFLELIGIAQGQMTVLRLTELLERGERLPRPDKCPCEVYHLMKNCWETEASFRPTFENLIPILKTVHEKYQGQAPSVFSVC
Description: TYK2 inhibition (Table 4).

The next experiment concerns the target T2, JAK3 (Homo sapiens, UniProt P52333).
T2 construct: made in house; host or cells: SF9 insect cells (baculovirus)
Description: JAK3 inhibition (Table 4). To be noted: read-out: JAK3 Ki.

The next experiment has as its target T3, JAK2 (Homo sapiens, UniProt O60674).
T3 construct: made in house; host or cells: SF9 insect cells (baculovirus)
Description: JAK2 inhibition (Table 4). Conditions: read-out: JAK2 Ki.

The target in a further experiment is T4, JAK1 (Homo sapiens, UniProt P23458).
T4 construct: made in house; host or cells: SF9 insect cells (baculovirus)
The experiment is described as follows: JAK1 inhibition (Table 4). To be noted: read-out: JAK1 Ki.

T2 sequence (P52333 783-1124): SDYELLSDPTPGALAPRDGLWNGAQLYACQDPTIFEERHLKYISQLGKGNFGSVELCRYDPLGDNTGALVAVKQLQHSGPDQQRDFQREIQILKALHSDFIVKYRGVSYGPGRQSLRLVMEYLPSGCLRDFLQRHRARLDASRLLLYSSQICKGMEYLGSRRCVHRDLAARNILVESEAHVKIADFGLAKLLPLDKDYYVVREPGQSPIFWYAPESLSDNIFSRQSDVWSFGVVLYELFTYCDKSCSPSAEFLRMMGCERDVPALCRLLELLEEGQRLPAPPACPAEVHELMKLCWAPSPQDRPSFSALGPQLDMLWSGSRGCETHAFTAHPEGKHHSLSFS
T4 sequence (P23458 852-1154): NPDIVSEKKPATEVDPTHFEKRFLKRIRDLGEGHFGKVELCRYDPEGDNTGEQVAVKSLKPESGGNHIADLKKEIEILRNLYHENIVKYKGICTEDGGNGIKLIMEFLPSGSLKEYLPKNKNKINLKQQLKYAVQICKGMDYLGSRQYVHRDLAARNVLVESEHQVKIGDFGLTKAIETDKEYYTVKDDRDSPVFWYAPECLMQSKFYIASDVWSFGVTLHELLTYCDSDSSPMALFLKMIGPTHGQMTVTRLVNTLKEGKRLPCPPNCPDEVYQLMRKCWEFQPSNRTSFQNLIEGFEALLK
T3 sequence (O60674 812-1132): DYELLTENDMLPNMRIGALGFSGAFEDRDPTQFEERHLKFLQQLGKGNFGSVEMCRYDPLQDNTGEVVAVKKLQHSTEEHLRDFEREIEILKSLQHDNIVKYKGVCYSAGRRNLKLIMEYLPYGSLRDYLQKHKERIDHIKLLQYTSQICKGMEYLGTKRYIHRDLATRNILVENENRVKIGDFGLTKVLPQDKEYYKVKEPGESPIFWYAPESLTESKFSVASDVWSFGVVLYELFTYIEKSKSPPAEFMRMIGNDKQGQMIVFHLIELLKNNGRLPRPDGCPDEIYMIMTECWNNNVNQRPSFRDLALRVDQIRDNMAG

With `N#CCCN1CCC(n2c(CNC(=O)c3cccnc3)nc3cnc4[nH]ccc4c32)CC1` [Example 494, N-{1-[1-(2-Cyano-ethyl)-piperidin-4-yl]-1,6-dihydro-1,3,5,6-tetraaza-as-indacen-2-ylmethyl}-nicotinamide], the Ki – broadly, a dissociation constant, usually derived from enzyme kinetics or from competition with a known ligand – came to 61.2 nM on TYK2, 18.6 nM at JAK3, 23.5 nM at JAK2 and 4.73 nM at JAK1.
Turning to `CC(C)S(=O)(=O)NCc1nc2cnc3[nH]ccc3c2n1C1CCN(CCC#N)CC1` [Example 495, Propane-2-sulfonic acid {1-[1-(2-cyano-ethyl)-piperidin-4-yl]-1,6-dihydro-1,3,5,6-tetraaza-as-indacen-2-ylmethyl}-amide], the Ki on TYK2 was 415 nM; at JAK3, 97.7 nM; on JAK2, 106 nM; at JAK1, 16.2 nM.
In the case of `N#CCCN1CCC(n2c(CNC(=O)c3ccccn3)nc3cnc4[nH]ccc4c32)CC1` [Example 496, Pyridine-2-carboxylic acid {1-[1-(2-cyano-ethyl)-piperidin-4-yl]-1,6-dihydro-1,3,5,6-tetraaza-as-indacen-2-ylmethyl}-amide], the Ki at TYK2 came to 55.7 nM; at JAK3, 13.1 nM; at JAK2, 8.05 nM; at JAK1 it was 2.75 nM.
Regarding `N#CCCN1CCC(n2c(CNS(=O)(=O)C3CC3)nc3cnc4[nH]ccc4c32)CC1` [Example 497, Cyclopropanesulfonic acid {1-[1-(2-cyano-ethyl)-piperidin-4-yl]-1,6-dihydro-1,3,5,6-tetraaza-as-indacen-2-ylmethyl}-amide], the Ki came out at 169 nM on TYK2, 76.3 nM on JAK3, 41.5 nM on JAK2 and 13 nM at JAK1.
Take `CC(C)C(=O)NCc1nc2cnc3[nH]ccc3c2n1C1CCN(CCC#N)CC1` [Example 498, N-{1-[1-(2-Cyano-ethyl)-piperidin-4-yl]-1,6-dihydro-1,3,5,6-tetraaza-as-indacen-2-ylmethyl}-isobutyramide]: the Ki on TYK2 worked out at 307 nM; on JAK3 it was 60 nM; on JAK2 it was 67.7 nM; at JAK1 it was 21.9 nM.
Regarding `N#CCCN1CCC(n2c(CNS(=O)(=O)C3CCCC3)nc3cnc4[nH]ccc4c32)CC1` [Example 499, Cyclopentanesulfonic acid {1-[1-(2-cyano-ethyl)-piperidin-4-yl]-1,6-dihydro-1,3,5,6-tetraaza-as-indacen-2-ylmethyl}-amide], the inhibition constant (Ki) on TYK2 turned out to be 417 nM; at JAK3, 103 nM; at JAK2, 85.6 nM; on JAK1, 13.8 nM.
The corresponding values for `N#CCCN1CCC(n2c(CNC(=O)C3CC3)nc3cnc4[nH]ccc4c32)CC1` [Example 500, Cyclopropanecarboxylic acid {1-[1-(2-cyano-ethyl)-piperidin-4-yl]-1,6-dihydro-1,3,5,6-tetraaza-as-indacen-2-ylmethyl}-amide] are 394 nM, 41 nM, 58.7 nM and 28.7 nM.
On to `N#CCCN1CCC(n2c(CNC(=O)c3ccccc3F)nc3cnc4[nH]ccc4c32)CC1` [Example 501, N-{1-[1-(2-Cyano-ethyl)-piperidin-4-yl]-1,6-dihydro-1,3,5,6-tetraaza-as-indacen-2-ylmethyl}-2-fluoro-benzamide], for which the Ki on TYK2 turned out to be 56.4 nM; on JAK3, 12.2 nM; at JAK2 it was 12 nM; at JAK1, 3.93 nM.
On to `COCC(=O)NCc1nc2cnc3[nH]ccc3c2n1C1CCN(CCC#N)CC1` [Example 503, N-{1-[1-(2-Cyano-ethyl)-piperidin-4-yl]-1,6-dihydro-1,3,5,6-tetraaza-as-indacen-2-ylmethyl}-2-methoxy-acetamide], for which the Ki on TYK2 came out at 50.5 nM; on JAK3, 19.6 nM; at JAK2, 10.4 nM; at JAK1, 2.54 nM.
As for `CCS(=O)(=O)NCc1nc2cnc3[nH]ccc3c2n1C1CCN(CCC#N)CC1` [Example 504], the inhibition constant Ki on TYK2 was 116 nM; on JAK3, 53.6 nM; on JAK2, 25.4 nM; at JAK1, 7.75 nM.
Turning to `N#CCCN1CCC(n2c(CNC(=O)c3cccc(F)c3)nc3cnc4[nH]ccc4c32)CC1` [Example 505, N-{1-[1-(2-Cyano-ethyl)-piperidin-4-yl]-1,6-dihydro-1,3,5,6-tetraaza-as-indacen-2-ylmethyl}-3-fluoro-benzamide], the Ki was 98.8 nM at TYK2, 20.4 nM at JAK3, 22.4 nM at JAK2 and 5.18 nM at JAK1.
The matching figures for `CC(C)CS(=O)(=O)NCc1nc2cnc3[nH]ccc3c2n1C1CCN(CCC#N)CC1` [Example 506, 2-Methyl-propane-1-sulfonic acid {1-[1-(2-cyano-ethyl)-piperidin-4-yl]-1,6-dihydro-1,3,5,6-tetraaza-as-indacen-2-ylmethyl}-amide]: 179 nM, 74 nM, 53.7 nM and 5.75 nM.
Take `OCc1nc2cnc3[nH]ccc3c2n1C1CCN(CCF)CC1` [Example 508, {1-[1-(2-Fluoro-ethyl)-piperidin-4-yl]-1,6-dihydro-1,3,5,6-tetraaza-as-indacen-2-yl}-methanol]: the inhibition constant (Ki) at TYK2 was found to be 10.2 nM; on JAK3, 23.2 nM; on JAK2, 10.3 nM; on JAK1 it was 2.14 nM.
As for `O=S(=O)(CCC(F)(F)F)NCCc1nc2cnc3[nH]ccc3c2n1C1CCCCC1` [Example 509, 3,3,3-Trifluoro-propane-1-sulfonic acid [2-(1-cyclohexyl-1,6-dihydro-1,3,5,6-tetraaza-as-indacen-2-yl)-ethyl]-amide], the inhibition constant (Ki) worked out at 21.6 nM at TYK2, 65.5 nM at JAK3, 23.6 nM at JAK2 and 2.55 nM at JAK1.
`CN(C)CC(=O)NCCc1nc2cnc3[nH]ccc3c2n1C1CCCCC1` [Example 510, N-[2-(1-Cyclohexyl-1,6-dihydro-1,3,5,6-tetraaza-as-indacen-2-yl)-ethyl]-2-dimethylamino-acetamide]: the inhibition constant Ki at TYK2 was determined as 20.8 nM; on JAK3 it was 132 nM; at JAK2, 51.1 nM; at JAK1 it was 3.91 nM.
The matching figures for `CN1CCN(S(=O)(=O)NCCc2nc3cnc4[nH]ccc4c3n2C2CCCCC2)CC1` [Example 511, 4-Methyl-piperazine-1-sulfonic acid [2-(1-cyclohexyl-1,6-dihydro-1,3,5,6-tetraaza-as-indacen-2-yl)-ethyl]-amide]: 30.3 nM, 174 nM, 48.9 nM and 5.3 nM.
The matching figures for `Cc1nc2cnc3[nH]ccc3c2n1C1CCN(CCF)CC1` [Example 513, 1-[1-(2-Fluoro-ethyl)-piperidin-4-yl]-2-methyl-1,6-dihydro-1,3,5,6-tetraaza-as-indacene]: 6.95 nM, 7.63 nM, 2.16 nM and 0.84 nM.
For `CCN1CC[C@@H](n2c(C)nc3cnc4[nH]ccc4c32)[C@@H](F)C1` [Example 521, 1-((3S,4R)-1-Ethyl-3-fluoro-piperidin-4-yl)-2-methyl-1,6-dihydro-1,3,5,6-tetraaza-as-indacene], the inhibition constant Ki was 48.8 nM on TYK2, 25.4 nM at JAK3, 7.04 nM at JAK2 and 3.48 nM on JAK1.
Regarding `CCN1CC[C@@H](n2nnc3cnc4[nH]ccc4c32)[C@@H](F)C1` [Example 522, 1-((3S,4R)-1-Ethyl-3-fluoro-piperidin-4-yl)-1,6-dihydro-1,2,3,5,6-pentaaza-as-indacene], the Ki is 356 nM at TYK2, 180 nM on JAK3, 56.9 nM on JAK2 and 38.5 nM at JAK1.
In the case of `CCN1CC[C@@H](n2cnc3cnc4[nH]ccc4c32)[C@@H](F)C1` [Example 523, 1-((3S,4R)-1-Ethyl-3-fluoro-piperidin-4-yl)-1,6-dihydro-1,3,5,6-tetraaza-as-indacene], the inhibitory constant (Ki) on TYK2 turned out to be 85.6 nM; on JAK3, 302 nM; on JAK2, 16.7 nM; on JAK1, 11.2 nM.
Turning to `N#CCCN1CCC(n2c(CF)nc3cnc4[nH]ccc4c32)CC1` [Example 530, 3-[4-(2-Fluoromethyl-6H-1,3,5,6-tetraaza-as-indacen-1-yl)-piperidin-1-yl]-propionitrile], the Ki turned out to be 5.61 nM at TYK2, 3 nM on JAK3, 1.45 nM at JAK2 and 0.66 nM on JAK1.
With `OCc1nc2cnc3[nH]ccc3c2n1C1CCOCC1` [Example 542, [1-(Tetrahydro-pyran-4-yl)-1,6-dihydro-1,3,5,6-tetraaza-as-indacen-2-yl]-methanol], the inhibition constant Ki at TYK2 came out at 27.3 nM; at JAK3 it was 51 nM; on JAK2, 76.6 nM; at JAK1, 18.2 nM.
Turning to `C[C@H](O)c1nc2cnc3[nH]ccc3c2n1C1CCOCC1` [Example 543, (S)-1-[1-(Tetrahydro-pyran-4-yl)-1,6-dihydro-1,3,5,6-tetraaza-as-indacen-2-yl]-ethanol], the Ki on TYK2 was found to be 274 nM; at JAK3, 179 nM; on JAK2, 384 nM; at JAK1, 82.6 nM.
Consider `Cc1nc2cnc3[nH]ccc3c2n1C1CCN(C(C)C)CC1` [Example 547, 1-(1-Isopropyl-piperidin-4-yl)-2-methyl-1,6-dihydro-1,3,5,6-tetraaza-as-indacene], for which the Ki was found to be 638 nM at TYK2, 1410 nM at JAK3, 184 nM at JAK2 and 27.4 nM on JAK1.

Source of the values: patent US8461328B2, “Tricyclic heterocyclic compounds, compositions and methods of use thereof” (Genentech, Inc., priority 2010, dated 2013).
